Laboratory results published in article PMC6131501, “Urate transporter inhibitor lesinurad is a selective peroxisome proliferator-activated receptor gamma modulator (sPPARγM) in vitro” (Scientific Reports, 2018).
Several values for one entry are separate records, joined by “and”; a condition that tells them apart may be missing. Equal values may be shown once.

What was measured:
PPARγ = test system: PPARγ; set-up: method as in PMID 27716403; details: up to 100 μM; non-human cell line overexpressing PPARγ; cited from earlier work
[1] = test system: PPARγ-regulated genes in 3T3-L1 adipocytes; experiment: PPARγ target gene quantification in 3T3-L1 adipocytes (qPCR); assay type: cell-based, murine; details: 3T3-L1 adipocytes, rosiglitazone 2 μM, 1 30 μM, mean ± SEM, n = 3
Method: 3T3-L1 cells were cultured and differentiated as described above. Cells were then lysed using TRIzol reagent (Ambion, Life Technologies, Carlsbad, CA, USA), and mRNA was isolated following the manufacturer’s protocol. DNA contaminations were digested using DNase (DNase I, RNase-free kit; Thermo Scientific, Waltham, MA, USA) and mRNA concentrations were measured with a NanoDrop2000 spectrophotometer (Thermo Scientific, Waltham, MA, USA). Subsequently, reverse transcription was performed using the high capacity RNA-to-cDNA kit (Applied Biosystems, Foster City, CA, USA). Quantitative real-time PCR was performed using specific primers for CD36, […] and CPT1A with a StepOnePlus real-time PCR system (Applied Biosystems, Foster City, CA, USA). Non-POU domain containing octamer binding protein (NonO) was used as reference gene for 3T3-L1. All samples were measured in duplicate and were analyzed using the ΔΔCt method. The following PCR primers were used: Adiponectin: 5′-TGACGACACCAAAAGGGCTC-3′ (fwd) and 5′-CACAAGTTCCCTTGGGTGGA-3′ (rev); CD36: 5′-TGCTGGAGCTGTTATTGGTG-3′ (fwd) and 5′-CATGAGAATGCCTCCAAACA-3′ (rev); FABP4: 5′-AGAAGTGGGAGTGGGCTTTG-3′ (fwd) and 5′-ACTCTCTGACCGGATGGTGA-3′ (rev); GLUT4: 5′-TGAAGAACGGATAGGGAGCAG-3′ (fwd) and 5′-GAAGTGCAAAGGGTGAGTGAG-3′ (rev); NonO: 5′-TGCTCCTGTGCCACCTGGTACTC-3′ (fwd) and 5′-CCGGAGCTGGACGGTTGAATGC-3′ (rev).
Results (expressed as mean ± SEM % relative mRNA expression; n = 3): Adiponectin: untreated (0.1% DMSO): 124 ± 45%; […];

PPARγ LBD / CBP = PPARγ LBD / CBP (Homo sapiens, UniProt P37231); experiment: PPARγ coactivator recruitment assay (time-resolved FRET), CBP; assay type: biochemical
Sequence of PPARγ LBD / CBP (Q92793 58-80 partner limits assumed, one chain of several): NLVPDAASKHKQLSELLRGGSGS
Excerpt: We analyzed the ability of lesinurad to induce recruitment of the coactivators steroid receptor coactivator 1 (SRC-1, also known as nuclear receptor coactivator 1 (NCOA1)) and cyclic AMP responsive element binding (CREB) protein (CBP) to the PPARγ ligand binding domain in a time-resolved FRET assay with labeled PPARγ-LBD and coactivator proteins (Fig. 5D).
Recruitment of coactivator-derived peptides to the PPARγ LBD was studied by homogeneous time-resolved fluorescence resonance energy transfer (HT-FRET or HTRF). Terbium cryptate as streptavidin conjugate (cisbio assays, France) was used as FRET donor. Peptides derived from coactivators SRC-1 [biotin-[…]] or CBP [biotin-[…]] encompassing the coactivator consensus motif LxxLL and N-terminal biotin for stable coupling to streptavidin were purchased (Eurogentec GmbH, Germany). […] FI520 nm was divided by FI620 nm and multiplied with 10,000 giving a dimensionless HTRF signal. Coactivator recruitment by the PPARγ LBD brings FRET donor and acceptor into close proximity resulting in a gain in FRET signal as signal for binding.

CYP3A4 = test system: CYP3A4; set-up: method as in PMID 28067999; details: cited from earlier work
[2] = molecular target: T1, recombinant PPARγ ligand binding domain (Homo sapiens, UniProt P37231); experiment: Isothermal titration calorimetry (ITC)
T1 sequence (P37231 238-503 limits assumed): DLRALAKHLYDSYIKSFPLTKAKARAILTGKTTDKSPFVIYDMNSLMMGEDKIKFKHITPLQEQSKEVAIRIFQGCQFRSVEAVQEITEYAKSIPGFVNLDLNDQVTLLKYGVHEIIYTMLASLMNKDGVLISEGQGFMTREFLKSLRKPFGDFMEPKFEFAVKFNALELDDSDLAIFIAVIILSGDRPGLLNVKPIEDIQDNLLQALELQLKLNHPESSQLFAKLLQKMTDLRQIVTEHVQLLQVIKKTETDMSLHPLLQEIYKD
Method: To confirm direct modulation of PPARγ by lesinurad, we analyzed their interaction by isothermal titration calorimetry (ITC). Due to limited solubility of lesinurad, recombinant PPARγ ligand binding domain (LBD) protein was (reversely) titrated to the drug.
Isothermal titration calorimetry (ITC) was conducted on an Affinity ITC (TA Instruments Affinity ITC). Recombinant PPARγ ligand binding domain protein (138 μM) and lesinurad (40 μM) were each dissolved in a HEPES buffer (25 mM; adjusted to pH 7.5 with KOH; further containing 150 mM KF, 10% glycerol (w/w), 1% DMSO (v/v) and 5 mM DTT). The ITC instrument was adjusted to a temperature of 25 °C and the stirring rate was set at 75 rpm. 190 μL lesinurad solution were filled into the reaction cell and PPARγ ligand binding domain solution was titrated in 41 injections. […] An interval of 200 s was maintained between individual injections. The heats of dilution resulting from titrating PPARγ ligand binding domain protein solution into the buffer solution were recorded in an additional ITC run and subtracted from the raw ITC data obtained for lesinurad.
ITC raw data was analyzed using NanoAnalyze software package (version 3.7.5). An independent binding model was used to fit the reaction enthalpy (ΔH), binding affinity constant (Kd), and stoichiometry (n). Free energy change (ΔG) was calculated from the equation ΔG = −RT ln K and the entropy (ΔS) was calculated from ΔG = ΔH−TΔS.

O=C(O)CSc1nnc(Br)n1-c1ccc(C2CC2)c2ccccc12 [lesinurad]
PPARγ activation reported by Miner et al. (PPARγ): does not activate PPARγ | CD36 relative mRNA expression ([1]; untreated 122 ± 43%): 205 ± 76% | Adiponectin relative mRNA expression ([1]; untreated 124 ± 45%): 175 ± 63% | GLUT4 relative mRNA expression ([1]; untreated 145 ± 61%): 128 ± 43% | FABP4 relative mRNA expression ([1]; untreated 161 ± 72%): 151 ± 58% | EC50 (PPARγ LBD / CBP; HTRF, PPARγ LBD, 2 h at RT): 44 ± 8 µM | CBP recruitment efficacy (PPARγ LBD / CBP; compared to 1 μM rosiglitazone): 59 ± 4% | CYP3A4 induction (CYP3A4): CYP3A4 inducer | Kd ([2]; 25 °C, PPARγ LBD titrated to drug, independent binding model): 1.3 µM | ΔS ([2]; 25 °C, calculated from ΔG = ΔH−TΔS): 27 J/mol·K and 26,99 J/mol·K | n (stoichiometry) ([2]; value printed in the picture of Fig. 4): 0,987
